Measured values as given in patent US11287431B2, “Method of testing for pulmonary hypertension” (TOHOKU UNIVERSITY, priority 2014, dated 2022).

System: pulmonary artery smooth muscle cells (PASMC) in idiopathic pulmonary arterial hypertension (IPAH) patients
Experiment: Selenoprotein P protein secretion by IPAH-PASMC at hypoxia, western blot of whole cell lysates and conditioned medium
Assay type: cell-based, human
Conditions: IPAH-PASMC cultured 24 hours at hypoxia (oxygen concentration: 2%) in the presence of fasudil (hydroxyfasudil concentration: 10 μM), versus normoxia and hypoxia alone
From the text: The response of pulmonary artery smooth muscle cells (PASMC) in idiopathic pulmonary arterial hypertension (IPAH) patients (hereinafter also referred to as IPAH-PASMC) to hypoxia stimulation was observed.
Primary cell lines were established from pulmonary vascular smooth muscle in idiopathic pulmonary arterial hypertension patients, in accordance with the following document: Ogawa A, Nakamura K, Matsubara H, Fujio H, Ikeda T, Kobayashi K, Miyazaki I, Asanuma M, Miyaji K, Miura D, Kusano K F, Date H, Ohe T, Circulation, 2005; 112: 1806-1812. The pulmonary vascular smooth muscle in idiopathic pulmonary arterial hypertension patients was isolated from pulmonary arteries having an outer diameter of 1.5 mm or less.
IPAH-PASMC was cultured in D-MEM medium supplemented by 10% FBS (fetal bovine serum) at 37° C. under constant temperature and constant humidity conditions at 95% air and 5% CO2 in accordance with a usual method. In this test, passage 4 to 7 cells at a confluence of 70 to 80% were used. […]
After culturing, whole cell lysates and a conditioned medium were prepared for each sample, and selenoprotein P protein was detected by western blot analysis.

O=S(=O)(c1cccc2cnccc12)N1CCCNCC1 [fasudil]
extracellular secretion of selenoprotein P protein (into the medium): enhanced secretion of selenoprotein P protein was not observed
